Measured values reported in patent publication US11555210B2, “Microbe having increased tolerance to phenolic fermentation inhibitors” (University of Ottawa, priority 2018, dated 2023).
Entries after “also recorded” stand apart in the source; their conditions may differ.

What was measured:
[1] = tested on: Zwf1; test: Zwf1 protein quantification by western blot; format: cell-based, S. cerevisiae; conditions: 2 mM coniferyl aldehyde, 2 hours at 30° C.; ρ=0.00176
Procedure: Protein quantification was carried out by western blots as follows. Overnight cultures of wild type cells were diluted in fresh YPD medium to a final OD600 of 0.1. These were grown at 30° C. until they reached the early log phase. Subsequently, coniferyl aldehyde was added to the cultures to a final concentration of 2 mM and the cultures were further incubated for 2 hours. Whole cell extracts (WCE) were obtained by centrifugation of the cells (3000 rpm for 3 min; 4° C.), washing of cell pellet with chilled sterile water and cell lysis using the Trichloroacetic acid (TCA) protocol (Kao and Osley, 2003, Methods. 31,59-66). Equal number of cells was used for the TCA lysis and equal volumes of WCE were used for the quantitative western blot analysis. […] Prior to the protein level quantification, the linear range of the target protein Zwf1 was determined by loading seven 2-fold dilutions of the WCE to obtain a standard curve of protein load versus band intensity of Zwf1. The amount of Zwf1 in the coniferyl aldehyde treated cultures and the control was quantified using the Image Lab software as previously described (Taylor and Posch, 2014, BioMed Research International. 2014, 361590). This was calculated as the ratio of the Zwf1 band intensity to the intensity of bands in the entire lane signal using the TGX Stain-Free Fast Cast (total proteins). […]

[2] = tested on: tkl1Δ (YKB4796); test: dot assay on YPD agar plates; format: cell-based, S. cerevisiae; conditions: 1 mM coniferyl aldehyde, 48 hr at 30° C.
Procedure: (§1) Wild type (BY4741) along with zwf1Δ (YKB4794), sol2Δ (YKB4847), sol3Δ (YKB4848), gnd1Δ (YKB4797), gnd2Δ (YKB4850), rpe1Δ (YKB4795), tal1Δ (YKB4851) and tkl1Δ (YKB4796) deletion strains were grown to mid log phase in YPD medium prior to being diluted into fresh medium to an OD600of 0.1. Four 10-fold serial dilutions were spotted onto YPD agar plates containing either 1 mM coniferyl aldehyde (1 mM CA) or no coniferyl aldehyde (0 mM CA). Plates were incubated for 48 hr at 30° C. and images are representative of three biological replicates.

[3] = tested on: gnd1Δ (YKB4797); test: dot assay on YPD agar plates; format: cell-based, S. cerevisiae; conditions: 1 mM coniferyl aldehyde, 48 hr at 30° C.
Procedure: as §1

[4] = tested on: rpe1Δ (YKB4795); test: dot assay on YPD agar plates; format: cell-based, S. cerevisiae; conditions: 1 mM coniferyl aldehyde, 48 hr at 30° C.
Procedure: as §1

[5] = tested on: Sol2-GFP, Sol3-GFP and Rpe1-GFP; test: fluorescence microscopy of GFP-tagged pentose phosphate pathway proteins; format: cell-based, S. cerevisiae; conditions: 2 mM coniferyl aldehyde
[6] = tested on: bna7Δ (YKB4649); test: serial dilution spot assay on YPD agar plates; format: cell-based, S. cerevisiae; conditions: 10 mM FA, 35 mM 4-HBA or 1 mM CA, 48 hr at 30° C.
Procedure: In addition, deletion mutants were generated for genes involved in the tryptophan catabolic pathway and their growth was assayed on solid media containing 10 mM ferulic acid. In particular, wild type yeast (BY4741) along with deletion mutants aro8Δ (YKB4799), bna7Δ (YKB4649), bna2Δ (YKB4798), bna6Δ (YKB4844), bna5Δ (YKB4845), bna4Δ (YKB4846) and bna1Δ (YKB4729) were grown to mid log phase ([…] 0.5-0.6) in YPD medium prior to being diluted to an OD600 of 0.1. Four 10-fold serial dilutions were spotted onto YPD agar plates either containing 10 mM ferulic acid or no ferulic acid. Plates were incubated for 48 hr at 30° C. Images of the plates were taken with the ChemiDoc XRS Molecular Imaging system (Biorad) and images are representative of three biological replicates.
(§2) Experiments were also conducted to determine if deletion of BNA7 could provide protection to 4-hydroxybenzoic acid or coniferyl aldehyde (CA). Wild type (BY4741) and bna7A (YKB4649) strains were grown to mid log phase in YPD medium prior to being diluted into fresh medium to an OD600 of 0.1. Four 10-fold serial dilutions were spotted onto YPD agar plates containing either no compound (Untreated), 10 mM ferulic acid (FA), 35 mM 4-hydroxybenzoic acid (4-HBA) or 1 mM coniferyl aldehyde (CA). Plates were incubated for 48 hr at 30° C. and images are representative of three biological replicates.

[7] = tested on: zwf1Δ (YKB4794); test: dot assay on YPD agar plates; format: cell-based, S. cerevisiae; conditions: 10 mM FA, 35 mM 4-HBA or 1 mM CA, 48 hr at 30° C., compared to wild type
Procedure: as §1
as §2, with “Wild” for “Experiments were also conducted to determine if deletion of BNA7 could provide protection to 4-hydroxybenzoic acid or coniferyl aldehyde (CA). Wild”, “(BY4741), bna7Δ (YKB4649)” for “(BY4741)”, “zwf1Δ (YKB4794)” for “bna7A (YKB4649) strains”

[8] = tested on: Saccharomyces cerevisiae ethanol red; conditions: commercial Saccharomyces cerevisiae ethanol red; Adeboye et al., 2014; cited from earlier work
[9] = tested on: wild-type cells expressing PEX3-RFP, SEC13-RFP or CIT1-RFP; test: co-localization of ROS signal with organelle markers; format: cell-based, S. cerevisiae
Description: For co-localization studies, images were obtained as Z-stacks. Co-localization of the fluorescence signals were quantified using the IMARIS software 9.2.1 (Bitplane; http://www.bitplane.com) and a Manders' overlap co-efficient (Manders et al., 1993, Journal of Microscopy. 169, 375-382) was used to evaluate the fraction of RFP pixels (organelle marker) also positive for GFP pixels ([…]). The closer the value is to one, the higher the level of co-localization. The analysis was complemented by performing an object-based quantification where the percentage volume of ROS that localized to the mitochondria and endoplasmic reticulum was measured.

[10] = 2 mM coniferyl aldehyde, object-based analysis

Structure (SMILES): COc1cc(C=CC=O)ccc1O [coniferyl aldehyde, 4-hydroxy-3-methoxycinnamaldehyde]
- increase in Zwf1 protein levels compared to untreated [1]: 1.5 fold
- growth of tkl1Δ on agar plates [2]: no growth
- growth of gnd1Δ on agar plates [3]: no growth
- growth of rpe1Δ on agar plates [4]: no growth
- localization of Sol2-GFP, Sol3-GFP and Rpe1-GFP signal [5]: concentration of signal into punctate structures
- resistance of bna7Δ / protection by deletion of BNA7 [6]: does not provide protection
- growth of zwf1Δ on agar plates [7]: no growth; also recorded: limited growth
- concentration at which the compound kills the yeast [8]: 1 mM
- Manders' overlap co-efficient, ROS with ER marker SEC13-RFP ([9]; 2 mM coniferyl aldehyde): 0.13±0.1
- Manders' overlap co-efficient, ROS with mitochondria marker CIT1-RFP ([9]; 2 mM coniferyl aldehyde): 0.45±0.04
- percentage volume of ROS that localized to the mitochondria [9, 10]: 54.1±17.29%
- total volume of ROS that localized to the ER [9, 10]: 26.5±12.8%
- localization of ROS to peroxisomes ([9]; 2 mM coniferyl aldehyde, peroxisome marker PEX3-RFP): did not localize to the peroxisomes
- mitochondrial fragmentation ([9]; after 2 hours of coniferyl aldehyde treatment): high degree of mitochondrial fragmentation
